These cell lines were tested with CC1=NN=C(O1)C2=NN=C(C=C2)N3CCC(CC3)OC4=C(C=CC(=C4)F)Cl + O=C(CCCCCCC(=O)Nc1ccccc1)NO [Vorinostat] (partner 1 µM) (assay: relative viability (nuclei count vs DMSO), 5 days (fraction); higher = more cells survive). Details: first compound 8 µM.
Summary of the method: (§1)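 A single step with final 0.05% Triton X-100, 1% formaldehyde and 1 ug/ml Hoechst fixed the cells and stained nuclei 5 days after treatment. Lung cancer cell lines in 1536-well plates had been treated by pin tool the day after seeding with one drug alone or a fixed anchor-drug dose plus five library-drug doses (not always all listed) in √10 steps, and nuclei were counted on 4× images. Relative viability is the ratio of nuclei in treated wells to nuclei in vehicle wells, taken as the median of duplicate plates.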

Cell Line	relative viability
NCI-H727	1.22
NCI-H2405	0.455
EMC-BAC-2	0.239
NCI-H23	0.514
HCC-366	0.0801
NCI-H1755	0.538
NCI-H838	0.623
LK-2	0.295
NCI-H2347	0.501
NCI-H2342	0.436
SK-MES-1	0.702
H3255	0.557
COR-L23	0.316
COR-L 105	0.8
IA-LM	0.364
LU99A	0.563

Cell Line	relative viability
ChaGo-K-1	0.448
NCI-H2170	0.362
NCI-H460	0.19
HOP-62	0.203
HCC-44	0.423
SW 900	0.28
LXF-289	0.463
BEN	0.538
HARA	0.432
NCI-H1648	0.513
HCC-78	0.381
NCI-H1395	0.593
NCI-H1793	0.666
NCI-H1944	0.393
ABC-1	0.525
NCI-H358	0.35

Each cell line was assayed with CC1=NN=C(O1)C2=NN=C(C=C2)N3CCC(CC3)OC4=C(C=CC(=C4)F)Cl + Cc1nc(Nc2ncc(C(=O)Nc3c(C)cccc3Cl)s2)cc(N2CCN(CCO)CC2)n1 [Dasatinib] (partner 0.075 µM) in the same assay as above. Details: first compound 0.253 µM.
Summary of the method: as §1

Cell Line	relative viability
NCI-H522	0.856
NCI-H1623	0.522
SK-LU-1	0.166
NCI-H1792	0.578
NCI-H2087	0.597
NCI-H596	0.558
NCI-H1355	0.314
SW 1573	0.452
LCLC-103H	0.401
NCI-H727	0.328
NCI-H2405	0.199
EMC-BAC-2	0.319
NCI-H23	0.622
HCC-366	0.292
NCI-H1755	0.36
NCI-H838	0.299
LK-2	0.393
NCI-H2342	0.286
SK-MES-1	0.359

Cell Line	relative viability
H3255	0.316
COR-L23	0.438
COR-L 105	0.329
LU99A	0.517
ChaGo-K-1	0.604
NCI-H2170	0.351
NCI-H460	0.175
HOP-62	0.571
LXF-289	0.209
BEN	0.375
HARA	0.271
HCC-78	0.413
NCI-H1395	0.448
NCI-H1563	0.465
NCI-H1793	0.378
NCI-H1944	0.212
ABC-1	0.457
NCI-H358	0.199

Same assay, conditions: first compound 0.8 µM

Cell Line	relative viability
NCI-H522	0.842
NCI-H1623	0.492
NCI-H1792	0.714
NCI-H2087	0.458
NCI-H596	0.602
NCI-H1355	0.526
SW 1573	0.535
LCLC-103H	0.392
NCI-H2405	0.207
EMC-BAC-2	0.324
HCC-366	0.375
NCI-H1755	0.438
NCI-H838	0.32
LK-2	0.458
NCI-H2347	0.343
NCI-H2342	0.293
SK-MES-1	0.384
H3255	0.434

Cell Line	relative viability
COR-L23	0.375
COR-L 105	0.346
LU99A	0.674
ChaGo-K-1	0.531
NCI-H2170	0.332
NCI-H460	0.185
HOP-62	0.633
LXF-289	0.234
BEN	0.508
HARA	0.248
HCC-78	0.302
NCI-H1395	0.405
NCI-H1563	0.48
NCI-H1793	0.342
NCI-H1944	0.23
ABC-1	0.32
NCI-H358	0.196

Same assay, conditions: first compound 2.53 µM

Cell Line	relative viability
NCI-H522	0.974
NCI-H1623	0.498
SK-LU-1	0.0949
NCI-H1792	0.78
NCI-H2087	0.581
NCI-H596	0.647
NCI-H1355	0.781
SW 1573	0.459
LCLC-103H	0.449
NCI-H727	0.441
NCI-H2405	0.179
EMC-BAC-2	0.362
NCI-H23	0.79
HCC-366	0.471
NCI-H1755	0.406
NCI-H838	0.301
LK-2	0.504
NCI-H2347	0.33
NCI-H2342	0.325
SK-MES-1	0.419

Cell Line	relative viability
H3255	0.404
COR-L23	0.39
COR-L 105	0.413
LU99A	0.728
ChaGo-K-1	0.654
NCI-H2170	0.374
NCI-H460	0.214
HOP-62	0.606
SW 900	0.642
LXF-289	0.195
BEN	0.321
HARA	0.247
HCC-78	0.341
NCI-H1395	0.401
NCI-H1563	0.55
NCI-H1793	0.448
NCI-H1944	0.224
ABC-1	0.318
NCI-H358	0.19

Same assay, conditions: first compound 8 µM

Cell Line	relative viability
NCI-H522	0.938
NCI-H1623	0.441
SK-LU-1	0.119
NCI-H1792	0.707
NCI-H2087	0.515
NCI-H596	0.506
NCI-H1355	0.585
SW 1573	0.315
LCLC-103H	0.427
NCI-H727	0.384
NCI-H2405	0.181
EMC-BAC-2	0.422
NCI-H23	0.71
